In one assay the test system is MT2. Put plainly: Concentration required for anti-viral activity (Anti-HIV-IIIB activity) against human T lymphoid (MT-2) cells that are infected with HIV-IIIB virus. The class given is functional, cell-based.
Assay [1] concerns the target Human immunodeficiency virus type 1 protease (Human immunodeficiency virus 1, UniProt Q72874). Put plainly: Concentration required for inhibitory activity against HIV-1 Protease.

Bounds are passed on as bounds.

By IC50 is commonly meant the concentration needed to halve the response being measured. A high value points to weaker potency. `CC(C)(C)NC(=O)[C@@H]1C[C@@H]2CCCC[C@@H]2CN1C[C@@H](O)[C@H](Cc1ccccc1)NC(=O)[C@H](CC(N)=O)NC(=O)c1ccc2ccccc2n1`: in the assay on MT2, the IC50 amounted to 0.003 µM.
For `CC[C@H](C)[C@H](NC(=O)[C@H](Cc1ccccc1)C[C@@H](O)CN1C[C@H]2CCCC[C@H]2C[C@H]1C(=O)NC(C)(C)C)C(=O)NCc1nc2ccccc2[nH]1`, the IC50 in the assay on MT2 came to 0.021 µM; in assay [1], 0.03 µM.
The like results for `CC[C@H](C)[C@H](NC(=O)[C@H](Cc1ccccc1)CC(O)CN1CCC[C@@H]1C(=O)N[C@H](C(=O)OC(C)(C)C)[C@@H](C)CC)C(=O)NCc1nc2ccccc2[nH]1` (some centres undefined) were, in that order, more than 1.75 µM and more than 1.4 µM.
On the same counts, the results for `CC[C@H](C)[C@H](NC(=O)[C@H](Cc1ccccc1)CC(O)CN1CCC[C@@H]1C(=O)NC(C)(C)C)C(=O)NCc1nc2ccccc2[nH]1` (some centres undefined) are 0.49 µM and 0.08 µM.
Turning to `CC[C@H](C)[C@H](NC(=O)[C@H](Cc1ccccc1)CC(O)(CO)CN1C[C@H]2CCCC[C@H]2C[C@H]1C(=O)NC(C)(C)C)C(=O)NCc1nc2ccccc2[nH]1` (some centres undefined), the concentration for half-maximal inhibition (IC50) with MT2 turned out to be 0.28 µM.
The same measure, in the same setting: then `CC[C@H](C)[C@H](NC(=O)[C@H](Cc1ccccc1)CC(O)CN1C[C@H]2CCCC[C@H]2C[C@H]1C(=O)NC(C)(C)C)C(=O)OC` (some centres undefined), with more than 1.75 µM.
Regarding `CC(C)(C)NC(=O)[C@@H]1C[C@@H]2CCCC[C@@H]2CN1CC(O)C[C@@H](Cc1ccccc1)C(=O)N[C@H]1CCCC[C@@H]1NC(=O)c1ccc2ccccc2n1` (some centres undefined), the IC50 in the assay on MT2 was determined as 3.6 µM; in assay [1], 0.07 µM.
Turning to `CC[C@H](C)[C@H](NC(=O)[C@H](Cc1ccccc1)CC(O)(CO)CN(CC(=O)NC(C)(C)C)CC1CCCCC1)C(=O)NCc1nc2ccccc2[nH]1` (some centres undefined), the IC50 in the assay with MT2 was more than 1.75 µM; in assay [1], 0.14 µM.
Regarding `CC[C@H](C)[C@H](NC(=O)[C@H](Cc1ccccc1)CC(O)CN1CCCCC1C(=O)NC(C)(C)C)C(=O)NCc1nc2ccccc2[nH]1` (some centres undefined), the IC50 with MT2 came to 0.48 µM; in assay [1], 0.03 µM.
The like results for `CC(C)(C)NC(=O)[C@@H]1C[C@@H]2CCCC[C@@H]2CN1CC(O)C[C@@H](Cc1ccccc1)C(=O)N[C@H]1CCCC[C@@H]1NC(=O)c1cc2ccccc2cn1` (some centres undefined) were, in that order, 1.75 µM and 0.07 µM.
The like results for `CC[C@H](C)[C@H](NC(=O)[C@H](CC(C)C)CC(O)CN1C[C@H]2CCCC[C@H]2C[C@H]1C(=O)NC(C)(C)C)C(=O)NCc1nc2ccccc2[nH]1` (some centres undefined) were, in that order, 0.031 µM and 0.03 µM.
On the same counts, the results for `CC[C@H](C)[C@H](NC(=O)[C@H](Cc1ccccc1)CC(O)CN1C[C@H]2CCCC[C@H]2C[C@H]1C(=O)NC(C)(C)C)C(=O)NCCc1nc2ccccc2[nH]1` (some centres undefined) are 0.85 µM and 0.13 µM.
On to `CN(CC(O)C[C@@H](Cc1ccccc1)C(=O)N[C@H]1CCCC[C@@H]1NC(=O)c1ccc2ccccc2n1)[C@@H](CC1CCCCC1)C(=O)NC(C)(C)C` (some centres undefined), for which the results for the half-inhibitory concentration (IC50) (with MT2; in assay [1]) were more than 1.75 µM and more than 1.4 µM, respectively.
The like results for `CC[C@H](C)[C@H](NC(=O)[C@H](Cc1ccccc1)CC(O)CN1CCCCC1C(=O)NC(C)(C)C)C(=O)NCc1ccccn1` (some centres undefined) were, in that order, more than 1.75 µM and 0.25 µM.
On the same counts, the results for `CC[C@H](C)[C@H](NC(=O)[C@H](Cc1ccccc1)CC(O)CN1C[C@H]2CCCC[C@H]2C[C@H]1C(=O)NC(C)(C)C)C(=O)NCc1ccccn1` (some centres undefined) are 0.31 µM and 0.15 µM.
The like results for `CC[C@H](C)[C@H](NC(=O)[C@H](Cc1ccccc1)CC(O)CN1C[C@H]2CCCC[C@H]2C[C@H]1C(=O)NC(C)(C)C)C(=O)NCc1nc2ccccc2[nH]1` (single isomer, unassigned) were, in that order, 0.029 µM and 0.03 µM.

The values are drawn from ChEMBL document CHEMBL1126528, “Synthesis and biological evaluation of a series of HIV-1 protease inhibitors” (Bioorg Med Chem Lett, 1993).
